Measured values from patent US12428413B2 (CHDI Foundation, Inc., priority 2019, dated 2025).
Read-outs that look alike come from different tables or passages of the source.

Experiments:
[1] = target: human catalytic domain ROCK II protein (amino acids 5-554) with a N-terminal GST tag (Homo sapiens, UniProt O75116); assay: biochemical
[2] = tested on: cellular ROCK activity (cofilin phosphorylation at Ser3) in A7r5 rat smooth muscle cells; assay: Cellular ROCK activity: cofilin (Ser3) phosphorylation, In-Cell Western assay; format: cell-based; settings: 1 hour compound incubation, phospho-cofilin (Ser3), read-out: CELL_IC50
Experimental: The potency of Rho-associated protein kinase (ROCK) inhibitors was quantified by measuring cofilin phosphorylation levels at Serine 3 (Ser3) as a measure of cellular ROCK activity by In-Cell Western assay. […] The assay plate was imaged and quantified on the Odyssey imager (LICOR Biosciences).
ROCK inhibitor compound plate preparation. […] Stock compounds and control are added directly to ECHO plate (Labcyte) by Janus.
A7r5 cell culture and plating. A7r5 cells were cultured according to standard cell culture protocols in A7r5 growth media (DMEM with Glutamax and 10% FBS). […] 45 μl of re-suspended A7r5 cells were plated at 3000 cells/well in a sterile, μclear, black, F-bottom, 384-well microplate (Greiner bio-one). Seeded cells allowed to settle in wells on the bench for 1 hour before incubation at 37° C., 5% CO2 overnight.
Assay reagent and antibody preparations. Wash buffer was prepared by addition of Tween-20 to Dulbecco's Phosphate Buffered Saline (DPBS) (1×) without calcium and magnesium to make 1% Tween-20 as final concentration. Blocking buffer was prepared by addition of TritonX-100 to SeaBlock buffer (ThermoFisher) to make 0.3% TritonX-100 as final concentration. […] Secondary antibody mix was prepared by diluting donkey anti-rabbit 800CW antibody (LICOR Biosciences) 1:1000 in SeaBlock buffer.
Assay procedure. Compound plate was diluted by addition of 19 μl/well compound dilution buffer (DMEM with Glutamax) using 125 μl 16-channel Matrix electronic pipette. 5 μl diluted compound was stamped from compound plate to assay plate containing A7r5 cells using Bravo (384-well head from Agilent) liquid handler and incubated at 37° C., 5% CO2 for 1 hour. Cells were fixed by addition of 5 μl 37% formaldehyde using 125 μl 16-channel Matrix electronic pipette and incubation for 20 min at room temperature. The assay plate was washed 5× with 60 μl/well wash buffer. […] Next, the assay plate was sealed, centrifuged at 1000 rpm for 5 seconds and incubated at 4° C. overnight on an orbital shaker at 300 rpm. […] The assay plate was centrifuged at 1000 rpm for 5 seconds and incubated on an orbital shaker at 300 rpm for 60 min at room temperature. Finally, assay plate was washed and wells left empty before measurement of 700 nm and 800 nm fluorescence intensities on Odyssey imager set at 4.0 mm focus offset.

human catalytic domain ROCK II protein (amino acids 5-554) with a N-terminal GST tag, sequence (O75116 5-554): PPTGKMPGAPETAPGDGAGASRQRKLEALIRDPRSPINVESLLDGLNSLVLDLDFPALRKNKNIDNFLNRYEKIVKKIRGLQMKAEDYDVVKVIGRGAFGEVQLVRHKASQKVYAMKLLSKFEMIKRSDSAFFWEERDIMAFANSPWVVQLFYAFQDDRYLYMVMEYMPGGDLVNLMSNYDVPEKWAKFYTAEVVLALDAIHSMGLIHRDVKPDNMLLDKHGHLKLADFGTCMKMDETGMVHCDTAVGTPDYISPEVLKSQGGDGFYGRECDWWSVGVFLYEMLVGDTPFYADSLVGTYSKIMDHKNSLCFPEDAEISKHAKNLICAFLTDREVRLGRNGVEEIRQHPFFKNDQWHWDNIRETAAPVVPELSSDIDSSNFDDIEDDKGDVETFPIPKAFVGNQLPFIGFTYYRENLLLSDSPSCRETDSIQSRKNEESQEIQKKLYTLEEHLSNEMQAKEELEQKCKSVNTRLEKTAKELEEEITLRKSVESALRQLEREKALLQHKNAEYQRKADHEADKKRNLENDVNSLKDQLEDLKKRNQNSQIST

Row | Compound | IC50 [1] | IC50 ([2]; Rattus norvegicus, A7R5, 1 h) | IC50 [2]
1 | CC(NC(=O)N1CCN(c2ccncc2F)CC1)c1cccc(F)c1Cl (single isomer, unassigned) [Example 23, N-(1-(2-Chloro-3-fluorophenyl)ethyl)-4-(3-fluoropyridin-4-yl)piperazine-1-carboxamide] | 88.8 nM | – | 1440 nM
2 | COc1ccc(Cl)c([C@@H](C)NC(=O)N2CCN(c3ccnc(F)c3)C[C@H]2C)c1 [Example 3, (R)—N—((R)-1-(2-Chloro-5-methoxyphenyl)ethyl)-4-(2-fluoropyridin-4-yl)-2-methylpiperazine-1-carboxamide] | 59.9 nM | 2410 nM | –
3 | C[C@@H]1CN(c2ccnc(F)c2)CCN1C(=O)NCc1cccc2occc12 [Example 8, (R)—N-(Benzofuran-4-ylmethyl)-4-(2-fluoropyridin-4-yl)-2-methylpiperazine-1-carboxamide] | 22 nM | 676 nM | –
4 | Cc1cnc2cccc([C@@H](C)NC(=O)N3CCN(c4ccnc(F)c4)C[C@H]3C)n12 [Example 9, (R)-4-(2-Fluoropyridin-4-yl)-2-methyl-N—((R)-1-(3-methylimidazo[1,2-a]pyridin-5-yl)ethyl)piperazine-1-carboxamide] | 12.3 nM | 240 nM | –
5 | C[C@@H]1CN(c2ccnc(F)c2)CCN1C(=O)N[C@H](C)c1cccc2c1OCO2 [Example 12, (R)—N—((R)-1-(Benzo[d][1,3]dioxol-4-yl)ethyl)-4-(2-fluoropyridin-4-yl)-2-methylpiperazine-1-carboxamide] | 11.5 nM | 200 nM | –
6 | C[C@@H]1CN(C(=O)N[C@H](C)c2ccccc2Cl)CCN1c1ccnc(F)c1 [Example 13, (R)—N—((R)-1-(2-Chlorophenyl)ethyl)-4-(2-fluoropyridin-4-yl)-3-methylpiperazine-1-carboxamide] | 4790 nM | ≥ 5000 nM | –
7 | COc1cccc([C@@H](C)NC(=O)N2CCN(c3ccncc3F)CC2)c1F [Example 18, (R)—N-(1-(2-Fluoro-3-methoxyphenyl)ethyl)-4-(3-fluoropyridin-4-yl)piperazine-1-carboxamide] | 198 nM | 2550 nM | –
8 | COc1cccc([C@@H](C)NC(=O)N2CCN(c3ccncc3F)CC2)c1Cl [Example 20] | 581 nM | ≥ 5000 nM | –
9 | COc1cccc(CNC(=O)N2CCN(c3ccncc3F)CC2)c1 [Example 25, 4-(3-Fluoropyridin-4-yl)-N-(3-methoxybenzyl)piperazine-1-carboxamide] | 52.3 nM | 749 nM | –
10 | C[C@@H](NC(=O)N1CCN(c2ccncc2F)CC1)c1cccc2c1CCO2 [Example 28, (R)—N-(1-(2,3-Dihydrobenzofuran-4-yl)ethyl)-4-(3-fluoropyridin-4-yl)piperazine-1-carboxamide] | 2.8 nM | 27.2 nM | –
11 | C[C@@H](NC(=O)N1CCN(c2ccncc2F)CC1)c1cccc2occc12 [Example 29, (R)—N-(1-(Benzofuran-4-yl)ethyl)-4-(3-fluoropyridin-4-yl)piperazine-1-carboxamide] | 4.5 nM | 54.1 nM | –
12 | Cc1cc2c([C@@H](C)NC(=O)N3CCN(c4ccncc4F)CC3)cccc2o1 [Example 31, (R)-4-(3-Fluoropyridin-4-yl)-N-(1-(2-methylbenzofuran-4-yl)ethyl)piperazine-1-carboxamide] | 3.7 nM | 189 nM | –
13 | C[C@H](NC(=O)N1CCN(c2ccncc2F)C[C@H]1C)c1cccc2nn(C)cc12 [Example 72, (R)-4-(3-Fluoropyridin-4-yl)-2-methyl-N—((S)-1-(2-methyl-2H-indazol-4-yl)ethyl)piperazine-1-carboxamide] | 86.6 nM | – | –
14 | COc1cc(F)cc(CN2C[C@H]3CN(c4ccncc4F)CCN3C2=O)c1 [Example 85, (R)-2-(3-Fluoro-5-methoxybenzyl)-7-(3-fluoropyridin-4-yl)hexahydroimidazo[1,5-a]pyrazin-3(2H)-one] | 4680 nM | – | –
15 | COc1cccc(CNC(=O)N2CCN(c3ccnc(F)c3)[C@@H](C)C2)c1 [Example 121] | 102 nM | – | –
16 | C[C@@H]1CN(c2ccncc2F)CCN1C(=O)N[C@H](C)c1cccc2c1N(C)CCO2 [Example 143] | 3070 nM | – | –

Further compounds by falling IC50 [1], results first:

Row | IC50 [1] | IC50 ([2]; Rattus norvegicus, A7R5, 1 h) | IC50 [2] | Compound
17 | 1060 nM | – | – | O=C(NCc1cccc(OC(F)F)c1)N1CCN(c2ccnc(F)c2)CC1 [Example 103]
18 | 802 nM | – | – | C[C@H]1CN(C(=O)NCc2cccc(OC(F)F)c2)CCN1c1ccnc(F)c1 [Example 122]
19 | 563 nM | – | – | C[C@@H]1CN(c2ccncc2F)C[C@@H](C)N1C(=O)NCc1ccccc1Cl [Example 92, (2R,6R)—N-(2-Chlorobenzyl)-4-(3-fluoropyridin-4-yl)-2,6-dimethylpiperazine-1-carboxamide]
20 | 142 nM | – | – | Cc1cnc2cccc([C@H](C)NC(=O)N3CCN(c4ccncc4F)CC3)n12 [Example 35, (S)-4-(3-fluoropyridin-4-yl)-N-(1-(3-methylimidazo[1,2-a]pyridin-5-yl)ethyl)piperazine-1-carboxamide]
21 | 75.9 nM | 1390 nM | – | COc1cccc([C@@H](C)NC(=O)N2[C@H](C)CN(c3ccnc(F)c3)C[C@H]2C)c1 [Example 15, (2R,6R)-4-(2-Fluoropyridin-4-yl)-N—((R)-1-(3-methoxyphenyl)ethyl)-2,6-dimethylpiperazine-1-carboxamide]
22 | 65.5 nM | 1160 nM | – | CC(NC(=O)N1CCN(c2ccncc2F)CC1)c1c(F)cccc1Cl (centres unmarked) [Example 26, N-(1-(2-Chloro-6-fluorophenyl)ethyl)-4-(3-fluoropyridin-4-yl)piperazine-1-carboxamide]
23 | 46.7 nM | 1020 nM | – | CC(NC(=O)N1CCN(c2ccncc2F)CC1)c1cccc(F)c1Cl (single isomer, unassigned) [Example 22, N-(1-(2-Chloro-3-fluorophenyl)ethyl)-4-(3-fluoropyridin-4-yl)piperazine-1-carboxamide]
24 | 37.5 nM | 902 nM | – | COc1ccc(Cl)c([C@@H](C)NC(=O)N2CCN(c3ccncc3F)CC2)c1 [Example 24, (R)—N-(1-(2-Chloro-5-methoxyphenyl)ethyl)-4-(3-fluoropyridin-4-yl)piperazine-1-carboxamide]
25 | 32.7 nM | 411 nM | – | C[C@@H]1CN(c2ccnc(F)c2)CCN1C(=O)NCc1cccc2nn(C)cc12 [Example 11, (R)-4-(2-Fluoropyridin-4-yl)-2-methyl-N-((2-methyl-2H-indazol-4-yl)methyl)piperazine-1-carboxamide]
26 | 32.3 nM | 1090 nM | – | COc1cccc([C@@H](C)OC(=O)N2CCN(c3ccncc3F)CC2)c1 [Example 17, (R)-1-(3-Methoxyphenyl)ethyl 4-(3-fluoropyridin-4-yl)piperazine-1-carboxylate]
27 | 30.7 nM | 1690 nM | – | COc1cccc([C@@H](C)OC(=O)N2CCN(c3ccnc(F)c3)C[C@H]2C)c1 [Example 2, (R)-1-(3-Methoxyphenyl)ethyl (R)-4-(2-fluoropyridin-4-yl)-2-methylpiperazine-1-carboxylate]
28 | 22.4 nM | 301 nM | – | C[C@@H](NC(=O)N1CCN(c2ccncc2F)CC1)c1cccc2c1CC(C)(C)O2 [Example 30, (R)—N-(1-(2,2-Dimethyl-2,3-dihydrobenzofuran-4-yl)ethyl)-4-(3-fluoropyridin-4-yl)piperazine-1-carboxamide]
29 | 7.6 nM | 122 nM | – | COc1cccc([C@@H](C)NC(=O)N2CCN(c3ccncc3F)CC2)c1 [Example 16, (R)-4-(3-fluoropyridin-4-yl)-N-(1-(3-methoxyphenyl)ethyl)piperazine-1-carboxamide]
30 | 7.5 nM | 104 nM | – | Cc1cnc2cccc([C@@H](C)NC(=O)N3CCN(c4ccncc4F)CC3)n12 [Example 34, (R)-4-(3-fluoropyridin-4-yl)-N-(1-(3-methylimidazo[1,2-a]pyridin-5-yl)ethyl)piperazine-1-carboxamide]
31 | 6.5 nM | 122 nM | – | COc1cccc([C@@H](C)NC(=O)N2CCN(c3ccnc(F)c3)C[C@H]2C)c1 [Example 1, (R)-4-(2-Fluoropyridin-4-yl)-N—((R)-1-(3-methoxyphenyl)ethyl)-2-methylpiperazine-1-carboxamide]
32 | 5.8 nM | 87.7 nM | – | C[C@@H](NC(=O)N1CCN(c2ccncc2F)CC1)c1cccc2c1OCO2 [Example 27, (R)—N-(1-(Benzo[d][1,3]dioxol-4-yl)ethyl)-4-(3-fluoropyridin-4-yl)piperazine-1-carboxamide]
